# Results: US20150225377A1, “VEGFR3 INHIBITORS” (CANCER THERAPEUTICS CRC PTY LIMITED, priority 2012, published 2015)
# How the values were obtained:
# [1] = molecular target: T1, VEGFR3 cytoplasmic domain (Homo sapiens, UniProt P35916); assay: VEGFR3 biochemical assay (AlphaScreen); settings: GST-VEGFR3 cytoplasmic domain, 500 μM ATP (modified form: His-fusion, 1 μM ATP)
# T1 construct: VEGFR3 cytoplasmic domain (amino acids 798-1298) was purchased as N-terminal GST-fusion protein; GST (N); purchased
# Description: Compounds of the invention may be tested for in vitro activity in the following assay: A biotin labelled peptide is used as substrate (amino acid sequence: Biotin-[…]NH2). VEGFR3 cytoplasmic domain (amino acids 798-1298) was purchased as N-terminal GST-fusion protein (“the enzyme”). The 15 μL assay reactions are run in Greiner brand white 384-well low volume plates. All reactions contained 10 mM HEPES pH 7.4, 10 mM MgCl2, 0.01% (v/v) Tween-20, 50 μM Na3VO4, 0.01% (w/v) albumin from chicken egg white, 1 mM Dithiothreitol, 111 nM peptide substrate, 500 μM ATP, and 3.8 ng/reaction enzyme, with the enzyme being omitted from negative control reactions. Compounds were added in a volume of […] from dilution series prepared in DMSO, positive and negative control reactions receiving the same volume DMSO without compound. The plates were sealed with adhesive seals and incubated for 90 minutes at 30 degree Celsius. The reactions were stopped with the detection reagents added at the same time as follows: Product formation was quantified as amplified luminescence between PerkinElmer AlphaScreen™ beads, using Streptavidin-coated donor and anti-phosphotyrosine (P-Tyr-100) acceptor beads. To each reaction, 5 μL containing 10 mM HEPES pH 7.4, 25 mM NaCl, 100 mM EDTA, 0.01% (v/v) Tween-20, and 6.25 μg/mL of each bead type were added. Plates were incubated for 6 hours before being read on a PerkinElmer EnVision™ plate reader in HTS Alphascreen™ mode. IC50 values were obtained by calculating percent inhibition (% I) for each reaction relative to controls on the same plate (% I=(I-CN)/(CP-CN) where CN/CP are the averages of the negative/positive reactions, respectively), then fitting the % I data vs. compound concentration [I] to % I=(A+((B−A)/(1+((C/[I])̂D)))) where A is the lower asymptote, B is the upper asymptote, C is the IC50 value, and D is the slope factor.
# The above assay was also run in a modified form in some cases (indicated below with *). In these cases, VEGFR3 cytoplasmic domain (amino acids 818-1177, lacking 949-1002 of UniProt accession number P35916) was expressed and purified as N-terminal Hexa-His-fusion protein (“the enzyme”), rather than using the N-terminal GST-fusion protein. The assay conditions were the same as above but with 1 μM ATP and 8 ng/reaction of the enzyme.
# P397Y-FAK = molecular target: T2, P397Y-FAK (Homo sapiens, UniProt Q05397); assay: P397Y-FAK inhibition MSD platform cellular biomarker assay; type: cell-based; settings: MDA-231-LNA cells, 1 hour compound
# T2 construct: endogenous in cells; host or cells: MDA-231-LNA
# Description: 96-well plates (cat#MA6000, Meso Scale Discovery) are coated with 30 μL/well of mouse monoclonal FAK antibody [63D5] (cat#ab72140, Abcam) pre-diluted in PBS to a concentration of 1 mg/mL. The plates are sealed with adhesive film and incubated for 16 hours at 4° C. The antibody is then flicked out of the plates and 150 μL of 3% [w/v] Blocker A (cat#R93AA-1, Meso Scale Discovery) is added. The plates are resealed with adhesive film and incubated at room temperature on a shaker set at medium speed for 2 hours. The plates are then washed three times with a solution containing 50 mM Tris-HCl pH 7.5, 0.15 M NaCl and 0.02% Tween-20, before cell lysate addition described below.
# Cells are split 1:2 into T150 cell culture flasks 2 days prior to compound treatment. On the day prior to compound treatment, 200 μL media containing 20,000 cells is seeded into all wells of white, clear-bottom, TC treated, pclear, 96-well microtitre plates (cat#655098, Greiner Bio-One), and the plates are incubated at 37° C. and 5% CO2 for […]. 1 pUwell of compound is then added from dilution series prepared in DMSO. Negative control wells receive the same volume of DMSO without compounds, and positive control wells receive 2 μM of a control compound in the same volume of DMSO. Cells are treated for 1 hour at 37° C. and 5% CO2. The media/compounds are then flicked off and 55 pUwell of ice-cold complete lysis buffer is added. Complete lysis buffer is prepared by adding 1 tablet PhosSTOP complete phosphatase inhibitor (cat#04906837001, Roche) and 1 tablet Complete, Mini, EDTA-free, protease inhibitor (cat#04693159001, Roche) per 10 mL of incomplete lysis buffer (150 mM NaCl, 20 mM Tris-HCl pH 7.5, 1 mM EDTA, 1 mM EGTA, 1% Triton-X 100). Plates are incubated on ice for 30 minutes, with 30 seconds high speed plate shaking every 5 minutes. 40 μL/well of cell lysate is transferred to the coated, blocked and washed 96-well microtitre plates described above. The 96-well plates are sealed with adhesive film and incubated for 16 hours at 4° C. The plates are then washed three times with a solution containing 50 mM Tris-HCl pH 7.5, 0.15 M NaCl and 0.02% Tween-20 and tapped dry. 25 μL/well of detection solution (1% [w/v] Blocker A (cat#R93AA-1, Meso Scale Discovery) in 50 mM Tris-HCl pH 7.5, 0.15 M NaCl and 0.02% Tween-20, with 1:600 rabbit polyclonal FAK phospho Y397 antibody (cat#ab39967, Abcam), 1:1000 anti-rabbit sulfo-tag antibody (cat#R32AB-1 Meso Scale Discovery) and 1:40 reconstituted Blocker D-M (cat#D609-0100, Rockland Immunochemicals for Research)) is added, and the plates resealed with adhesive film and incubated for 1 hour at room temperature on a plate shaker set to medium speed. Plates are then washed three times with a solution containing 50 mM Tris-HCl pH 7.5, 0.15 M NaCl and 0.02% Tween-20 and tapped dry. 150 μL/well of Read Buffer T+Surfactant (cat#R92TC-1, Meso Scale Discovery) is then added, and pFAK-397 levels quantified using a Meso Scale Discovery SECTOR Imager 6000 instrument.
# T1 sequence (P35916 798-1298 isoform P35916-1): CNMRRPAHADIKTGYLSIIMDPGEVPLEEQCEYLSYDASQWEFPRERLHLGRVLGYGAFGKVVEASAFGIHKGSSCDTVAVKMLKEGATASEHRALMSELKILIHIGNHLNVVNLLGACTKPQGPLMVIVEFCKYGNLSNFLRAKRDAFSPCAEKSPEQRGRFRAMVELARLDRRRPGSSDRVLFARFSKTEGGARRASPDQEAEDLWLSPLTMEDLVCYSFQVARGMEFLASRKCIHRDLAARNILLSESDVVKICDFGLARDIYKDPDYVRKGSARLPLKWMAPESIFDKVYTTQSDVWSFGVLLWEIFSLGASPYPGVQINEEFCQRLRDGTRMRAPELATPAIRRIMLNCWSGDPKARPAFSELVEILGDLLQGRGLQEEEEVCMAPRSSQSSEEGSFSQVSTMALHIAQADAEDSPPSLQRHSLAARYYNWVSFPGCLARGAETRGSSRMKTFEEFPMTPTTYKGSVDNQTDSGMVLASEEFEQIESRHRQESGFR
# T2 sequence (Q05397 2-1052 limits assumed, stated change not applied): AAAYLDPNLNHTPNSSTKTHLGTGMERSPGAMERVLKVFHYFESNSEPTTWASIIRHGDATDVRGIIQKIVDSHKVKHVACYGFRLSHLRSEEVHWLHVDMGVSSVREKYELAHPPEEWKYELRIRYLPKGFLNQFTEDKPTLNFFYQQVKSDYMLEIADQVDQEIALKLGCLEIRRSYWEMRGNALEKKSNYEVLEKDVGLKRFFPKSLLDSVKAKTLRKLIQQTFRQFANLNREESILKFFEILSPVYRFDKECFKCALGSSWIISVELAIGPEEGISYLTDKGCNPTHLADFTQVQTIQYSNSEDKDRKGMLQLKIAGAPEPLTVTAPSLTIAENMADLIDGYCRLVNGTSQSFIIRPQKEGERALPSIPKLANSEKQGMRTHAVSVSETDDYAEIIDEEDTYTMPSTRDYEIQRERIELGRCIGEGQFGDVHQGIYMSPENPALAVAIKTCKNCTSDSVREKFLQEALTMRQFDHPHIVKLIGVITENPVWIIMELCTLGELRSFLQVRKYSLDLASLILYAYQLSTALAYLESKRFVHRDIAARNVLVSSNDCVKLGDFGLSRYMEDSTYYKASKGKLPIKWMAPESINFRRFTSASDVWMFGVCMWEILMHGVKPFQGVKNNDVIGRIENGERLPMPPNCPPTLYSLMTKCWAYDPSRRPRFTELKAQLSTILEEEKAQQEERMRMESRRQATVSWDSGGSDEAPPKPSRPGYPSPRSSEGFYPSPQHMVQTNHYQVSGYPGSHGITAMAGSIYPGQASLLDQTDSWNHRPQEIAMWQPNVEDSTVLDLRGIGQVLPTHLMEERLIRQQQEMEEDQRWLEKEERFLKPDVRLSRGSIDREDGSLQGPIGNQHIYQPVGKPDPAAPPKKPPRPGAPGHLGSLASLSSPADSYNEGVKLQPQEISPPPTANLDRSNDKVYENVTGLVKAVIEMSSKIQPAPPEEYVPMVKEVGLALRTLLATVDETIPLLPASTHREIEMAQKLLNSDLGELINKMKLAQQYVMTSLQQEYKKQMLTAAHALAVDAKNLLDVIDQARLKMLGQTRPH
IC50 [1] [nM],IC50 (P397Y-FAK) [nM],SMILES
39,,"Cc1cnc(Nc2ccc(N3CCNCC3)cc2)nc1CCc1ccccc1CC(N)=O [Compound 2, 2-(2-(2-(5-methyl-2-((4-(piperazin-1-yl)phenyl)amino)pyrimidin-4-yl)ethyl)phenyl)acetamide]"
97,62,"NCc1ccc(Nc2ncc(C(F)(F)F)c(CCc3ccccc3CC(N)=O)n2)cc1 [Compound 3, 2-(2-(2-(2-((4-(Aminomethyl)phenyl)amino)-5-(trifluoromethyl)pyrimidin-4-yl)ethyl)phenyl)acetamide]"
28,> 2000,"Cc1cnc(Nc2ccc(C3CCN(C)CC3)nc2)nc1CCc1ccccc1CC(N)=O [Compound 5, 2-(2-(2-(5-methyl-2-((6-(1-methylpiperidin-4-yl)pyridin-3-yl)amino)pyrimidin-4-yl)ethyl)phenyl)acetamide]"
23,940,"NC(=O)Cc1ccccc1CCc1nc(Nc2ccc(C(=O)N3CCNCC3)cc2)ncc1C(F)(F)F [Compound 6, 2-(2-(2-(2-((4-(piperazine-1-carbonyl)phenyl)amino)-5-(trifluoromethyl)pyrimidin-4-yl)ethyl)phenyl)acetamide]"
26,16,"Cc1cc(Nc2ncc(C(F)(F)F)c(CCc3ccccc3CC(N)=O)n2)ccc1C1CCNCC1 [Compound 11, 2-(2-(2-(2-((3-methyl-4-(piperidin-4-yl)phenyl)amino)-5-(trifluoromethyl)pyrimidin-4-yl)ethyl)phenyl)acetamide]"
20,30,"Cc1cc(Nc2ncc(C(F)(F)F)c(CCc3ccccc3CC(N)=O)n2)ccc1C1CCN(C)CC1 [Compound 12, 2-(2-(2-(2-((3-methyl-4-(1-methylpiperidin-4-yl)phenyl)amino)-5-(trifluoromethyl)pyrimidin-4-yl)ethyl)phenyl)acetamide]"
22,> 2000,"Cc1cnc(Nc2ccc(C3CCNCC3)cc2)nc1CCc1ccccc1CC(N)=O [Compound 16, 2-(2-(2-(5-methyl-2-((4-(piperidin-4-yl)phenyl)amino)pyrimidin-4-yl)ethyl)phenyl)acetamide]"
46,25,"CC(N)c1ccc(Nc2ncc(C(F)(F)F)c(CCc3ccccc3CC(N)=O)n2)cc1 (stereo not drawn) [Compound 18, 2-(2-(2-(2-(4-(1-aminoethyl)phenylamino)-5-(trifluoromethyl)pyrimidin-4-yl)ethyl)phenyl)acetamide]"
24,> 2000,"Cc1cnc(Nc2cnn(C)c2)nc1CCc1ccccc1CC(N)=O [Compound 28, 2-(2-(2-(5-methyl-2-((1-methyl-^1H-pyrazol-4-yl)amino)pyrimidin-4-yl)ethyl)phenyl)acetamide]"
28,> 2000,"Cc1cnc(Nc2cnn(C3CCNCC3)c2)nc1CCc1ccccc1CC(N)=O [Compound 33, 2-(2-(2-(5-Methyl-2-((1-(piperidin-4-yl)-^1H-pyrazol-4-yl)amino)pyrimidin-4-yl)ethyl)phenyl)acetamide]"

SMILES,IC50 [1] [nM],IC50 (P397Y-FAK) [nM]
"Cc1cnc(Nc2ccc(C3CCNCC3)nc2)nc1CCc1ccccc1CC(N)=O [Compound 4, 2-(2-(2-(5-methyl-2-((6-(piperidin-4-yl)pyridin-3-yl)amino)pyrimidin-4-yl)ethyl)phenyl)acetamide]",35,
"Cc1cnc(Nc2cccnc2)nc1CCc1ccccc1CC(N)=O [Compound 24, 2-(2-(2-(5-methyl-2-(pyridin-3-ylamino)pyrimidin-4-yl)ethyl)phenyl)acetamide]",34,> 2000
"Cc1cnc(Nc2ccc(OC3CCNCC3)cc2)nc1CCc1ccccc1CC(N)=O [Compound 26, 2-(2-(2-(5-methyl-2-((4-(piperidin-4-yloxy)phenyl)amino)pyrimidin-4-yl)ethyl)phenyl)acetamide]",24,> 2000
"Cc1cnc(Nc2ccc(C3(N)COC3)cc2)nc1CCc1ccccc1CC(N)=O [Compound 31, 2-(2-(2-(2-(4-(3-aminooxetan-3-yl)phenylamino)-5-methylpyrimidin-4-yl)ethyl)phenyl)acetamide]",23,> 2000
"CC(N)c1ccc(Nc2ncc(Cl)c(CCc3ccccc3CC(N)=O)n2)cc1 (stereo not drawn) [Compound 37, 2-(2-(2-(2-(4-(1-aminoethyl)phenylamino)-5-chloropyrimidin-4-yl)ethyl)phenyl)acetamide]",12,
